# Target: T1, Amine oxidase [flavin-containing] A (Homo sapiens, UniProt P21397)
# T1 sequence (P21397 whole entry): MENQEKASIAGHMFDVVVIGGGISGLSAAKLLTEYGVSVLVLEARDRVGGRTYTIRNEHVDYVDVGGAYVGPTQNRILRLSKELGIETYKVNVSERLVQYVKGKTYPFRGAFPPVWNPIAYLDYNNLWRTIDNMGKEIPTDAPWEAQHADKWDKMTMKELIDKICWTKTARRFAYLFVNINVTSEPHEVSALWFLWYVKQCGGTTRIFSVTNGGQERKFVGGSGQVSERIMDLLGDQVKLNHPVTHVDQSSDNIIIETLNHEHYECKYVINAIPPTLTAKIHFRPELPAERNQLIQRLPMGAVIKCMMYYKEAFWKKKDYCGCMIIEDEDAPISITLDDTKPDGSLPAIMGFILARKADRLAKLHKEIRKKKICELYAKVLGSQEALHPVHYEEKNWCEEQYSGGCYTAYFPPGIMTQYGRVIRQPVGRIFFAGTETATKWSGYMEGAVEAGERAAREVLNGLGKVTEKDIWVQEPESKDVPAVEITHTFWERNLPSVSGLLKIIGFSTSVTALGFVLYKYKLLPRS
# Assay: Compound was tested for the inhibition of monoamine oxidase A (MAO A) from human liver
structure (smiles),measurement,value
C[C@@H]1NC(=O)[C@H](NC(=O)[C@@H](N)Cc2ccc(O)cc2)C(C)(C)SSC(C)(C)[C@@H](C(O)O)NC(=O)[C@H](Cc2ccccc2)NC1=O,Ki,2000 nM
